Measurements: ChEMBL document CHEMBL1909046, “DrugMatrix in vitro pharmacology data”
pIC50, pKi: −log10 of the molar value.

Assays:
[1] = biological target: Aldo-keto reductase family 1 member B1 (Rattus norvegicus, UniProt P07943); assay type: tissue-based, Lens of camera-type eye;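 further: inhibition of aldose reductase enzyme activity, measured with DL-glyceraldehyde as the substrate; in other assays of this panel Not Active means under 50% inhibition at 10 µM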
[2] = DRUGMATRIX: Calcium Channel Type L, Dihydropyridine radioligand binding (ligand: [3H] Nitrendipine); assay type: cell membranes, Rattus norvegicus, Wistar, Cerebral cortex, Membrane; settings: Not Active = under 50% inhibition at 10 µM
[3] = biological target: Sigma non-opioid intracellular receptor 1 (Homo sapiens, UniProt Q99720); test: DRUGMATRIX: Sigma1 radioligand binding (ligand: [3H] Haloperidol); assay type: cell membranes, Jurkat, Membrane; settings: Not Active = under 50% inhibition at 10 µM; for IC50 / Ki: jurkat; for pIC50: read-out: IC50; for pKi: read-out: Ki
[4] = DRUGMATRIX: Glutamate, AMPA radioligand binding (ligand: [3H] AMPA); assay type: cell membranes, Rattus norvegicus, Wistar, Cerebral cortex, Membrane; settings: Not Active = under 50% inhibition at 10 µM
Histamine H2 receptor = Histamine H2 receptor (Homo sapiens, UniProt P25021); assay type: cell membranes, CHO-K1, Membrane; settings: cho-k1; further: in other assays of this panel Not Active means under 50% inhibition at 10 µM
[5] = biological target: T1, Angiotensin-converting enzyme (Oryctolagus cuniculus, UniProt P12822); assay type: tissue-based, Lung;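 further: enzymatic inhibition of angiotensin-converting enzyme measured with FAPGG as the substrate; in other assays of this panel Not Active means under 50% inhibition at 10 µM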
T1 sequence (P12822 whole entry): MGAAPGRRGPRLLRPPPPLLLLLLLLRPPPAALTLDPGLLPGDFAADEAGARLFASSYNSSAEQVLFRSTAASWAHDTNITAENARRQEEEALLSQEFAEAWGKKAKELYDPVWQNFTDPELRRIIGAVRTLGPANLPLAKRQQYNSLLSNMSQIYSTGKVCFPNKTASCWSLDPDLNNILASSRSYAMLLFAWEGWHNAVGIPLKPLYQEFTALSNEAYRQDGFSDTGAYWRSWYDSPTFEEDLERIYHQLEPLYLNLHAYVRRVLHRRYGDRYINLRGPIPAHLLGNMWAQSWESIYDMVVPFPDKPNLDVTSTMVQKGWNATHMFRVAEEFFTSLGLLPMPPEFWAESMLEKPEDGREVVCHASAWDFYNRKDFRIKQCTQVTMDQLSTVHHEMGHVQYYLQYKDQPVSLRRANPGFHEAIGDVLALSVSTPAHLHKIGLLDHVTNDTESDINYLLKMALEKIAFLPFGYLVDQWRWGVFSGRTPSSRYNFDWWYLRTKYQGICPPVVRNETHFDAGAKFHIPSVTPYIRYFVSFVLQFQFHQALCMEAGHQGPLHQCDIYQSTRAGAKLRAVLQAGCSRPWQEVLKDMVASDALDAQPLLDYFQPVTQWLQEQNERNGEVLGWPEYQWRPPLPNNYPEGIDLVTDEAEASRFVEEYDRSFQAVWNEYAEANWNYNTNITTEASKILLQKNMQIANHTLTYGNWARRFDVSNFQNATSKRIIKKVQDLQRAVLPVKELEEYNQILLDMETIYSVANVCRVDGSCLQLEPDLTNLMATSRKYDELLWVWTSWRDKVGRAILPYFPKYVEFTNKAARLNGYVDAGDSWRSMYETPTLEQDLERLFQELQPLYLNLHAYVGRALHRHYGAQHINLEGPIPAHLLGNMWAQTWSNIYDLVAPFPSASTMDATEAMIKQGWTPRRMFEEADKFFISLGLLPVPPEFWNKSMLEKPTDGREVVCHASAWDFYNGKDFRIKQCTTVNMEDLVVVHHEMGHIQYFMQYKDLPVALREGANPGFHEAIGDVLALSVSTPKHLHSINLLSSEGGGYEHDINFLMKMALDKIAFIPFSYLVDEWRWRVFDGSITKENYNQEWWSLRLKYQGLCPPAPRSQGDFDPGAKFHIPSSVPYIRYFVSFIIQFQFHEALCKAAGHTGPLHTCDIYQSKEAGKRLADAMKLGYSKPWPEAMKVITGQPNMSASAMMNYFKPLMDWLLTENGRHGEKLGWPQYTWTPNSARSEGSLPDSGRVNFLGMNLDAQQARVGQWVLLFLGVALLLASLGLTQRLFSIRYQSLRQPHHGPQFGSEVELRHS

[6] = DRUGMATRIX: Purinergic P2X radioligand binding (ligand: [3H] alpha, beta-Methylene-ATP); assay type: cell membranes, Oryctolagus cuniculus, New Zealand albino, Urinary bladder, Membrane; settings: Not Active = under 50% inhibition at 10 µM

Histamine H2 receptor, sequence (P25021 whole entry): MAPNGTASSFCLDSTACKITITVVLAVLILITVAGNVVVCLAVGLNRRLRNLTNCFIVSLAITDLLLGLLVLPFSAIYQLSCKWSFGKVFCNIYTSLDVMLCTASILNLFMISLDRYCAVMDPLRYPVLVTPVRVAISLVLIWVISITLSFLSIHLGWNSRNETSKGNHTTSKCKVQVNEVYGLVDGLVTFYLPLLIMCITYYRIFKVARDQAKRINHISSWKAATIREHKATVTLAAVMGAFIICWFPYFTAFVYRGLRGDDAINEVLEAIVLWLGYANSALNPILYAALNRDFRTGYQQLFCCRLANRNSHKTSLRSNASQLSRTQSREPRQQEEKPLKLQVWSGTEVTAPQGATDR
Sigma non-opioid intracellular receptor 1, sequence (Q99720 whole entry): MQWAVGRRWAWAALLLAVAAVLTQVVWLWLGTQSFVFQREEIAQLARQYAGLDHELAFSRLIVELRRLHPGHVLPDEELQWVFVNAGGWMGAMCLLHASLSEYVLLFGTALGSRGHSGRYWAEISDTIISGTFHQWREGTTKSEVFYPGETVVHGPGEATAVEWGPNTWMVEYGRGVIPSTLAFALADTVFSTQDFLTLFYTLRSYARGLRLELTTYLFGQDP

Compound	IC50 [1]	IC50 [2]	Ki [2]	IC50 [3]	IC50 [4]	Ki [4]	IC50 (Histamine H2 receptor)	IC50 [5]	IC50 [6]	Ki [6]	pIC50 [3]	pKi [3]	Ki [1]	Ki [3]	Ki (Histamine H2 receptor)	Ki [5]
CC[C@@H](C(=O)[C@@H](C)[C@@H](O)[C@H](C)[C@@H]1O[C@@H]([C@@H](CC)C(=O)O)CC[C@@H]1C)[C@H]1O[C@]2(C=C[C@@H](O)[C@]3(CC[C@@](C)([C@H]4CC[C@](O)(CC)[C@H](C)O4)O3)O2)[C@H](C)C[C@@H]1C [SALINOMYCIN]	Not Active	Not Active	Not Active	Not Active	Not Active	Not Active	Not Active	Not Active	Not Active	Not Active	–	–	–	–	–	–
O=C(Oc1ccccc1C(=O)O)c1ccccc1O [SALSALATE]	Not Active	Not Active	Not Active	Not Active	Not Active	Not Active	Not Active	Not Active	Not Active	Not Active	–	–	–	–	–	–
O=C(O)c1cn(-c2ccc(F)cc2)c2cc(N3CCNCC3)c(F)cc2c1=O [SARAFLOXACIN]	Not Active	Not Active	Not Active	Not Active	Not Active	Not Active	Not Active	Not Active	Not Active	Not Active	–	–	–	–	–	–
CC(C)NCC(O)c1ccc(NS(C)(=O)=O)cc1 (stereo unspecified) [SOTALOL]	Not Active	Not Active	Not Active	Not Active	Not Active	Not Active	Not Active	Not Active	Not Active	Not Active	–	–	–	–	–	–
O.O.O.O.O.O.[Cl-].[Cl-].[Sr+2] [STRONTIUM CHLORIDE HEXAHYDRATE]	Not Active	Not Active	Not Active	Not Active	Not Active	Not Active	Not Active	Not Active	Not Active	Not Active	–	–	–	–	–	–
O=C1C(CC[S+]([O-])c2ccccc2)C(=O)N(c2ccccc2)N1c1ccccc1 (stereo unspecified) [SULFINPYRAZONE]	Not Active	Not Active	Not Active	Not Active	Not Active	Not Active	Not Active	Not Active	Not Active	Not Active	–	–	–	–	–	–
NC(=O)N1C(=O)/C(=C(\O)c2cccs2)c2cc(Cl)ccc21 [TENIDAP]	Not Active	Not Active	Not Active	Not Active	Not Active	Not Active	Not Active	Not Active	Not Active	Not Active	–	–	–	–	–	–
COc1cc2nc(N3CCN(C(=O)C4CCCO4)CC3)nc(N)c2cc1OC (stereo unspecified) [TERAZOSIN]	Not Active	Not Active	Not Active	Not Active	Not Active	Not Active	Not Active	Not Active	Not Active	Not Active	–	–	–	–	–	–
CN(C/C=C/C#CC(C)(C)C)Cc1cccc2ccccc12 [TERBINAFINE]	Not Active	Not Active	Not Active	–	Not Active	Not Active	Not Active	Not Active	Not Active	Not Active	6.25	6.63	–	–	–	–
CCCCNc1ccc(C(=O)OCCN(C)C)cc1 [TETRACAINE]	Not Active	Not Active	Not Active	–	Not Active	Not Active	Not Active	Not Active	Not Active	Not Active	5.78	6.15	–	–	–	–
Cn1c(=O)c2nc[nH]c2n(C)c1=O.O [THEOPHYLLINE]	Not Active	Not Active	Not Active	Not Active	Not Active	Not Active	Not Active	Not Active	Not Active	Not Active	–	–	–	–	–	–
CS(=O)(=O)c1ccc([C@@H](O)[C@@H](CO)NC(=O)C(Cl)Cl)cc1 [THIAMPHENICOL]	Not Active	Not Active	Not Active	Not Active	Not Active	Not Active	Not Active	Not Active	Not Active	Not Active	–	–	–	–	–	–
CCN(CC)CCNC(=O)c1cc(S(C)(=O)=O)ccc1OC [TIAPRIDE]	Not Active	Not Active	Not Active	Not Active	Not Active	Not Active	Not Active	Not Active	Not Active	Not Active	–	–	–	–	–	–
Clc1ccccc1CN1CCc2sccc2C1 [TICLOPIDINE]	Not Active	Not Active	Not Active	–	Not Active	Not Active	Not Active	Not Active	Not Active	Not Active	6.37	6.75	–	–	–	–
NC1CCN(c2nc3c(cc2F)c(=O)c(C(=O)O)cn3-c2ccc(F)cc2F)C1 (stereo unspecified) [TOSUFLOXACIN]	Not Active	Not Active	Not Active	Not Active	Not Active	Not Active	Not Active	Not Active	Not Active	Not Active	–	–	–	–	–	–
O=C(Nc1ccc(Br)cc1)c1cc(Br)cc(Br)c1O [TRIBROMSALAN]	Not Active	Not Active	Not Active	Not Active	Not Active	Not Active	Not Active	Not Active	Not Active	Not Active	–	–	–	–	–	–
CC(c1cc2ccccc2s1)N(O)C(N)=O (stereo unspecified) [ZILEUTON]	Not Active	Not Active	Not Active	Not Active	Not Active	Not Active	Not Active	Not Active	Not Active	Not Active	–	–	–	–	–	–
MANGANESE CHLORIDE ANHYDROUS	Not Active	Not Active	Not Active	Not Active	Not Active	Not Active	Not Active	Not Active	Not Active	Not Active	–	–	Not Active	Not Active	Not Active	Not Active
SODIUM ORTHOVANAD	Not Active	Not Active	Not Active	Not Active	Not Active	Not Active	Not Active	Not Active	Not Active	Not Active	–	–	Not Active	Not Active	Not Active	Not Active
